Legend:
[1] = OlympiA safety analysis: adverse events, blood transfusions; assay type: in vivo
Experimental: Efficacy analyses were based on the intention-to-treat (ITT) population. Survival functions were estimated by Kaplan-Meier method. The stratified Cox proportional-hazards model was used to estimate the hazard ratio and confidence intervals, the comparison of survival between treatment arms was tested by stratified log-rank test. […] Safety was assessed in the population who received at least one dose of study medication.
Adverse events of special interest included pneumonitis, radiation pneumonitis, myelodysplastic syndrome (MDS)/AML, and new primary malignancy other than AML/MDS.

[2] = tested on: metastatic HER2-negative breast cancer patients with gBRCA-P/LP variants; conditions: 45% received capecitabine as comparator; cited from earlier work
[3] = olaparib group, safety analysis set
[4] = safety analysis set, olaparib n=911
[5] = safety analysis set, olaparib n=911, listed as olaparib
[6] = safety analysis set, 300 mg bd, N = 911
[7] = treatment month: >=1-2 months, 300 mg bd, N = 911
[8] = treatment month: >=2-3 months, 300 mg bd, N = 911
[9] = treatment month: >=3-4 months, 300 mg bd, N = 911
[10] = treatment month: >=4-5 months, 300 mg bd, N = 911
[11] = treatment month: >=5-6 months, 300 mg bd, N = 911
[12] = treatment month: >=6-7 months, 300 mg bd, N = 911
[13] = treatment month: >=7-8 months, 300 mg bd, N = 911
[14] = treatment month: >=8-9 months, 300 mg bd, N = 911
[15] = treatment month: >=9-10 months, 300 mg bd, N = 911
[16] = treatment month: >=10-11 months, 300 mg bd, N = 911
[17] = treatment month: >=11 months, 300 mg bd, N = 911
[18] = treatment month: Up to month 1, 300 mg bd, N = 911

SMILES: O=C(c1cc(Cc2n[nH]c(=O)c3ccccc23)ccc1F)N1CCN(C(=O)C2CC2)CC1 [Olaparib, 4-[(3-{[4-(cyclopropane-carbonyl)piperazine-1-yl]carbonyl}-4-fluorophenyl)methyl]-2H-phthalazin-1-one]
- anemia leading to discontinuation of study drug [1, 3]: 1.8%
- fatigue leading to discontinuation of study drug [1, 3]: 1.3%
- nausea leading to discontinuation of study drug [1, 3]: 2.0%
- neutrophil count decreased leading to discontinuation of study drug [1, 3]: 1%
- Number of patients with only 1 transfusion ([1]; safety analysis set, olaparib N=911): 4.1%
- Patients with at least one blood transfusion ([1]; safety analysis set, olaparib N=911, up to 30 days after last dose): 5.8%
- Neutrophil count decreased (neutropenia), Grade ≥3 [1, 4]: (4.8) %
- Neutrophil count decreased, Grade ≥3 [1, 4]: 44 no.
- White blood cell count decreased (leukopenia), Grade ≥3 [1, 4]: (3.0) %
- White blood cell count decreased, Grade ≥3 [1, 4]: 27 no.
- Anemia, Grade ≥3 [1, 5]: 8.7%
- Fatigue, Grade ≥3 [1, 5]: 1.8%
- Neutrophil count decreased (neutropenia), Grade ≥3 [1, 5]: 4.8%
- White blood cell count decreased (leukopenia), Grade ≥3 [1, 5]: 3.0%
- AE leading to permanent discontinuation of treatment: Abdominal pain upper [1, 6]: 1 (0.1) no. of patients (%)
- AE leading to permanent discontinuation of treatment: Anaemia [1, 6]: 16 (1.8) no. of patients (%)
- AE leading to permanent discontinuation of treatment: Arthralgia [1, 6]: 1 (0.1) no. of patients (%)
- AE leading to permanent discontinuation of treatment: Breast cancer [1, 6]: 1 (0.1) no. of patients (%)
- AE leading to permanent discontinuation of treatment: Decreased appetite [1, 6]: 2 (0.2) no. of patients (%)
- AE leading to permanent discontinuation of treatment: Diarrhoea [1, 6]: 3 (0.3) no. of patients (%)
- AE leading to permanent discontinuation of treatment: Dizziness [1, 6]: 2 (0.2) no. of patients (%)
- AE leading to permanent discontinuation of treatment: Drug hypersensitivity [1, 6]: 3 (0.3) no. of patients (%)
- AE leading to permanent discontinuation of treatment: Fatigue [1, 6]: 12 (1.3) no. of patients (%)
- AE leading to permanent discontinuation of treatment: Headache [1, 6]: 7 (0.8) no. of patients (%)
- AE leading to permanent discontinuation of treatment: Nausea [1, 6]: 18 (2.0) no. of patients (%)
- AE leading to permanent discontinuation of treatment: Neutrophil count decreased [1, 6]: 9 (1.0) no. of patients (%)
- AE leading to permanent discontinuation of treatment: Pruritus [1, 6]: 3 (0.3) no. of patients (%)
- AE leading to permanent discontinuation of treatment: Vomiting [1, 6]: 7 (0.8) no. of patients (%)
- AE leading to permanent discontinuation of treatment: White blood cell count decreased [1, 6]: 6 (0.7) no. of patients (%)
- Any AE leading to permanent discontinuation [1, 6]: 90 (9.9) no. of patients (%)
- lymphopenia, grade 3 or higher ([1]; safety analysis, olaparib-group): 1.2%
- Blood transfusions over time, Total no. of transfusions [1, 7]: 2
- Blood transfusions over time, no. of patients (%) [1, 7]: 2 (0.2) no. of patients (%)
- Blood transfusions over time, Total no. of transfusions [1, 8]: 22
- Blood transfusions over time, no. of patients (%) [1, 8]: 21 (2.3) no. of patients (%)
- Blood transfusions over time, Total no. of transfusions [1, 9]: 10
- Blood transfusions over time, no. of patients (%) [1, 9]: 8 (0.9) no. of patients (%)
- Blood transfusions over time, Total no. of transfusions [1, 10]: 5
- Blood transfusions over time, no. of patients (%) [1, 10]: 5 (0.5) no. of patients (%)
- Blood transfusions over time, Total no. of transfusions [1, 11]: 8
- Blood transfusions over time, no. of patients (%) [1, 11]: 7 (0.8) no. of patients (%)
- Blood transfusions over time, Total no. of transfusions [1, 12]: 4
- Blood transfusions over time, no. of patients (%) [1, 12]: 4 (0.4) no. of patients (%)
- Blood transfusions over time, Total no. of transfusions [1, 13]: 8
- Blood transfusions over time, no. of patients (%) [1, 13]: 8 (0.9) no. of patients (%)
- Blood transfusions over time, Total no. of transfusions [1, 14]: 3
- Blood transfusions over time, no. of patients (%) [1, 14]: 3 (0.3) no. of patients (%)
- Blood transfusions over time, Total no. of transfusions [1, 15]: 2
- Blood transfusions over time, no. of patients (%) [1, 15]: 2 (0.2) no. of patients (%)
- Blood transfusions over time, Total no. of transfusions [1, 16]: 3
- Blood transfusions over time, no. of patients (%) [1, 16]: 3 (0.3) no. of patients (%)
- Blood transfusions over time, Total no. of transfusions [1, 17]: 5
- Blood transfusions over time, no. of patients (%) [1, 17]: 5 (0.5) no. of patients (%)
- Blood transfusions over time, Total no. of transfusions [1, 18]: 2
- Blood transfusions over time, no. of patients (%) [1, 18]: 2 (0.2) no. of patients (%)
- progression-free-survival versus chemotherapy [2]: more effective than chemotherapy

Source: patent US20240269135A1, “METHODS OF TREATING BREAST CANCER” (ASTRAZENECA AB, priority 2021, published 2024)
